# Experimental data from paper PMC4312176 (Chemical communications (Cambridge, England), 2015).
# How the values were obtained:
# [1] = target: T1, Plasmodium falciparum 1-deoxy-D-xylulose 5-phosphate reductoisomerase (PfDxr) (Plasmodium falciparum, UniProt Q8IKG4); test: inhibition of purified recombinant PfDxr, NADPH consumption assay; format: biochemical
# T1 sequence (Q8IKG4 73-488): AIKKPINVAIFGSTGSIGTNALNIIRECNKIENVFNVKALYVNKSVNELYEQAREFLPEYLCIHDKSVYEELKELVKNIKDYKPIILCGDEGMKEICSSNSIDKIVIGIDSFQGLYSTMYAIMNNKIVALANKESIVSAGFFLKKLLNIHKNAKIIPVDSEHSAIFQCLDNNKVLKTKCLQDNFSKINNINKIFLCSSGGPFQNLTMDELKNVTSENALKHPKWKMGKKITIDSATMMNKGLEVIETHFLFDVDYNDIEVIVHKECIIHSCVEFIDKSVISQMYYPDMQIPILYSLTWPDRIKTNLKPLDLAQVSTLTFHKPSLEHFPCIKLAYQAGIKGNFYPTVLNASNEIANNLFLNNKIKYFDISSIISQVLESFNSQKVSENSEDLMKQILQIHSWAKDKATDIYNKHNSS
# [2] = target: T1, Plasmodium falciparum 1-deoxy-D-xylulose 5-phosphate reductoisomerase (PfDxr); test: co-crystal structure; format: biochemical
SMILES,Ki [1],Ki [2]
CCC(=O)N(O)CCCP(=O)(O)O [FR-900098P],0.92 ± 0.19 nM,–
CC(=O)N(O)CCCP(=O)(O)O [FR-900098],–,3.7 ± 0.9 nM
